Test results reported in patent publication US20230406829A1, “Heterocyclic Compound and Preparation Method and Use Thereof” (SYNTRON (JIANGSU) PHARMACEUTICAL TECHNOLOGY CO., LTD., priority 2020, published 2023).

Experiments:
[1] = biological target: T1, recombinant human VISTA protein (Homo sapiens, UniProt Q9H7M9); test: Inhibition of VISTA interaction: rescue of IFN-γ release in human PBMC (ELISA); assay type: cell-based; conditions: 72 h, read-out: IC50 (VISTA interaction inhibitory activity)
T1 construct: purchased R & D Systems 7126-B7
Method: • 2. Determination of the inhibition effect of the compounds against VISTA interaction: • (1) Experimental Equipment and Reagents • 1. […] SpectraMax i3X Multifunction microplate reader (Molecular Device) • 3. […] Experimental procedure: • 1.1 Recombinant human VISTA (2.5 μg/ml) and anti-human CD3 antibody (2.5 μg/ml) were added to 96-well plates and stored in 4 C overnight. • 1.2 The next day, the anti-human VISTA antibody was added to the co-incubation for 30 min. Thereafter, cells were washed with 1*PBS and test compounds were added for 30 min. […] At 37 C, 5% CO2Below the conditions, the incubation was continued for 72 h. • 1.3 After separation by centrifugation at 4 C, 200 g*5 min, the supernatant was collected.

[2] = biological target: T2, VISTA protein modified by glycosylation (Homo sapiens, UniProt Q9H7M9); test: Binding ability of compounds to VISTA protein (Biacore S200, CM5 chip); conditions: compound diluted in 1.05*PBS-P, fitted
T2 sequence (Q9H7M9 33-311): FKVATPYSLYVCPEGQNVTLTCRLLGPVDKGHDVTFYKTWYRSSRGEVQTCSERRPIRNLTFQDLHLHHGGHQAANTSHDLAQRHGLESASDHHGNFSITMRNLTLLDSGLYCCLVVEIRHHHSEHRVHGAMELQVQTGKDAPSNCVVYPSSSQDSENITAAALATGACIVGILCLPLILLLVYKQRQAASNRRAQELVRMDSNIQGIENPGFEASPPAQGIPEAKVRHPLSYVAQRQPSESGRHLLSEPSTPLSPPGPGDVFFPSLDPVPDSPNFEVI
Text: Ability ability of compounds to VISTA protein • (I) Experimental Equipment and Reagents • 1. The machine model used in this experiment is: Biacore S200. • 2. S-series CM5 chip. […] Goods number: BR-1000-50, the purchase place is GE Healthcare. • 4.

T1 sequence (Q9H7M9 with tags, fused parts or gaps limits assumed): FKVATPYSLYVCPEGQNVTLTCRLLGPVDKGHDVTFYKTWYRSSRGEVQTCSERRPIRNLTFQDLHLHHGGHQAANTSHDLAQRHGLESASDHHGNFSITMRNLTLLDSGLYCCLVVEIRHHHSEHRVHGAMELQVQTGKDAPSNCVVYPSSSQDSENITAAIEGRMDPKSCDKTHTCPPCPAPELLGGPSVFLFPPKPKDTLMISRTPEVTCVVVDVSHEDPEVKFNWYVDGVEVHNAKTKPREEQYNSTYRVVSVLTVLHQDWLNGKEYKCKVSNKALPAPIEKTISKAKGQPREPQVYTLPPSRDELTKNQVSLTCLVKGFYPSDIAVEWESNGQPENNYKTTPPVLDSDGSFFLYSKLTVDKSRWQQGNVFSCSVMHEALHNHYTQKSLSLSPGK

SMILES | IC50 [1] | Kd [2]
Cc1c(-c2ccccc2)ccc2[nH]c(-c3ccc(CNCC(=O)O)cc3)nc12 [Compound 11] | 1 to 100 nM | –
Cc1c(-c2ccccc2)ccc2[nH]c(-c3cccc(C(=O)NCCO)c3)nc12 [Compound 38] | 1 to 100 nM | –
Cc1c(-c2ccccc2)ccc2[nH]c(-c3ccc(CNC[C@@H](O)CC(=O)O)cc3)nc12 [Compound 15] | 1 to 100 nM | –
Cc1c(-c2ccccc2)ccc2[nH]c(-c3ccc(CN4CCCC[C@H]4C(=O)O)cc3)nc12 [Compound 13] | 1 to 100 nM | –
CC(=O)NCCNCc1cccc(-c2cc3ccccn3c2)c1 [Compound 43] | 100 to 1000 nM | –
COc1cc2cc(-c3cccc(CNCCNC(C)=O)c3)cn2cn1 [Compound 46] | 1 to 100 nM | –
Cc1c(-c2ccccc2)ccc2[nH]c(-c3cccc(CN[C@H](CO)C(=O)O)c3)nc12 [Compound 5] | 1 to 100 nM | –
Cc1c(-c2ccccc2)ccc2[nH]c(-c3cccc(C(=O)O)c3)nc12 [Compound 31] | 1 to 100 nM | –
Cc1c(-c2ccccc2)ccc2[nH]c(-c3cccc(CN4CCCC[C@H]4C(=O)O)c3)nc12 [Compound 4] | 1 to 100 nM | –
COc1cc(-c2nc3c(C)c(-c4ccccc4)ccc3[nH]2)ccc1CN1CC[C@@H](O)C1 [Compound 23] | 1 to 100 nM | –
Cc1c(-c2ccccc2)ccc2[nH]c(-c3cccc(S(=O)(=O)NCCO)c3)nc12 [Compound 41] | 100 to 1000 nM | –
CCCOC(=O)c1cccc(-c2nc3c(C)c(-c4ccccc4)ccc3[nH]2)c1 [Compound 42] | 100 to 1000 nM | –
Cc1c(-c2ccccc2)ccc2[nH]c(-c3cccc(COCCN)c3)nc12 [Compound 40] | 100 to 1000 nM | –
Cc1c(-c2ccccc2)ccc2[nH]c(-c3cccc(CNC[C@@H]4CCNC4=O)c3)nc12 [Compound 9] | 1 to 100 nM | –
Cc1c(-c2ccccc2)ccc2nc(-c3ccc(CNCCO)cc3)[nH]c12 [Compound 12] | 100 to 1000 nM | –
CC(=O)NCCNCc1cccc(-c2cc3ccncn3c2)c1 [Compound 45] | 1 to 100 nM | –
COc1cc(-c2nc3c(C)c(-c4ccccc4)ccc3[nH]2)ccc1CNC[C@@H]1CCC(=O)N1 [Compound 24] | 1 to 100 nM | –
CC(=O)NCCNCc1cccc(-c2nc3cc(CO)ccn3n2)c1 [Compound 49] | 100 to 1000 nM | –
Cc1c(-c2ccccc2)ccc2[nH]c(-c3cccc(OCc4ccccc4)c3)nc12 [Compound 20] | 1 to 100 nM | –
Cc1c(-c2ccccc2)ccc2[nH]c(-c3cccc(OCc4cccnc4)c3)nc12 [Compound 21] | 100 to 1000 nM | –
Cc1c(-c2ccccc2)ccc2nc(-c3cccc(CNCCO)c3)cn12 [Compound 27] | 1 to 100 nM | –
COc1cccc(-c2nc3c(C)c(-c4ccccc4)ccc3[nH]2)c1 [Compound 19] | 100 to 1000 nM | –
Cc1c(-c2ccccc2)ccc2nc(-c3ccc(CNCCO)cc3)cn12 [Compound 25] | 100 to 1000 nM | –
Cc1c(-c2ccccc2)ccc2[nH]c(-c3ccc(CN[C@H](CO)C(=O)O)cc3)nc12 [Compound 14] | 100 to 1000 nM | –
CC(=O)NCCNCc1ccc(-c2cn3c(C)c(-c4ccccc4)ccc3n2)cc1 [Compound 26] | 100 to 1000 nM | –
Cc1c(-c2ccccc2)ccc2[nH]c(-c3ccc(CNCCO)c(OCc4cccnc4)c3)nc12 [Compound 22] | 1 to 100 nM | –
Cc1c(-c2ccccc2)ccc2[nH]c(-c3cccc(CN4CC[C@@H](O)C4)c3)nc12 [Compound 8] | 100 to 1000 nM | –

Other lines, results leading:

IC50 [1] | Kd [2] | SMILES
100 to 1000 nM | – | CC(=O)NCCNCc1cccc(-c2nc3c(C(F)(F)F)c(-c4ccccc4)ccc3[nH]2)c1 [Compound 37]
1 to 100 nM | – | CC(=O)NCCNCc1cccc(-c2nc3c(O)c(O)ccc3[nH]2)c1 [Compound 60]
1 to 100 nM | – | CC(=O)NCCNCc1cccc(-c2nc3cc(C#N)ccc3[nH]2)c1 [Compound 64]
100 to 1000 nM | – | CC(=O)NCCNCc1cccc(-c2cc3c(C)c(-c4ccccc4)ccn3c2)c1 [Compound 44]
100 to 1000 nM | – | CC(=O)NCCNCc1cccc(-c2nc3c(O)c(-c4ccccc4)ccc3[nH]2)c1 [Compound 54]
100 to 1000 nM | – | Cc1c(-c2ccccc2)ccc2[nH]c(-c3cccc(OCCNCCO)c3)nc12 [Compound 39]
100 to 1000 nM | – | Cc1c(-c2ccccc2)ccc2nc(-c3cccc(CNCC(=O)O)c3)[nH]c12 [Compound 2]
100 to 1000 nM | 338 nM | CC(=O)NCCNCc1ccc(-c2nc3ccc(-c4ccccc4)c(C)c3[nH]2)cc1 [Compound 10]
100 to 1000 nM | – | CC(=O)NCCNCc1cccc(-c2nc3cc(-c4ccco4)ccc3[nH]2)c1 [Compound 62]
100 to 1000 nM | – | CC(=O)NCCNCc1cccc(C2=NC3C=CC(c4ccccc4)=C(C)C3O2)c1 (centres unmarked) [Compound 52]
100 to 1000 nM | – | CC(=O)NCCNCc1cccc(-c2nc3cc(OCc4ccccc4)ccc3[nH]2)c1 [Compound 63]
1 to 100 nM | – | CC(=O)NCCNCc1cccc(-c2cn3ccc(-c4ccccc4)nc3n2)c1 [Compound 47]
100 to 1000 nM | – | CC(=O)NCCNCc1cccc(-c2cn3ncc(-c4ccccc4)c(C)c3n2)c1 [Compound 48]
1 to 100 nM | – | Cc1c(-c2ccccc2)ccc2[nH]c(-c3cccc(CNC[C@@H](O)CC(=O)O)c3)nc12 [Compound 6]
1 to 100 nM | – | CC(=O)NCCNCc1cccc(-c2nc3c(C)c(-c4ccc5c(c4)OCCO5)ccc3[nH]2)c1 [Compound 18]
1 to 100 nM | – | CC(=O)NCCNC(=O)c1cccc(-c2nc3c(C)c(-c4ccccc4)ccc3[nH]2)c1 [Compound 30]
1 to 100 nM | – | CC(=O)NCCNCc1cccc(-c2nc3c(F)c(-c4ccccc4)ccc3[nH]2)c1 [Compound 36]
1 to 100 nM | – | CC(=O)NCCNCc1cccc(-c2nc3ccc(Br)c(C)c3[nH]2)c1 [Compound 28]

IC50 [1] | Kd [2] | SMILES
1 to 100 nM | 461 nM | Cc1c(-c2ccccc2)ccc2nc(-c3cccc(CNCCN)c3)[nH]c12 [Compound 7]
100 to 1000 nM | – | CC(=O)NCCNCc1cccc(C2=CC3C=CC(c4ccccc4)=NC3O2)c1 (centres unmarked) [Compound 51]
1 to 100 nM | – | CC(=O)NCCNCc1cccc(-c2nc3c(O)cccc3[nH]2)c1 [Compound 59]
100 to 1000 nM | – | CC(=O)NCCNCc1cccc(-c2nc3c(CO)c(-c4ccccc4)ccc3[nH]2)c1 [Compound 58]
100 to 1000 nM | – | CC(=O)NCCNCc1cccc(-c2nc3c(C)c(-c4ccccc4)ccn3n2)c1 [Compound 50]
100 to 1000 nM | – | COc1ccc2[nH]c(-c3cccc(CNCCNC(C)=O)c3)nc2c1 [Compound 35]
100 to 1000 nM | – | CC(=O)NCCNCc1cccc(-c2nc3c4c(ccc3[nH]2)OCCO4)c1 [Compound 61]
1 to 100 nM | – | CC(=O)NCCNCc1cccc(-c2nc3c(C#N)c(-c4ccccc4)ccc3[nH]2)c1 [Compound 57]
1 to 100 nM | 153 nM | CC(=O)NCCNCc1cccc(-c2nc3c(C)c(-c4ccccc4)ccc3[nH]2)c1 [Compound 1]
1 to 100 nM | – | CC(=O)NCCNCc1cccc(-c2nc3ccccc3[nH]2)c1 [Compound 29]
1 to 100 nM | – | CC(=O)NCCNCc1cccc(-c2nc3c(Br)c(-c4ccccc4)ccc3[nH]2)c1 [Compound 16]
1 to 100 nM | – | CC(=O)NCCNCc1cccc(-c2nc3cc(-c4ccccc4)ccc3[nH]2)c1 [Compound 32]
1 to 100 nM | – | COc1c(-c2ccccc2)ccc2[nH]c(-c3cccc(CNCCNC(C)=O)c3)nc12 [Compound 55]
1 to 100 nM | – | CCc1c(-c2ccccc2)ccc2[nH]c(-c3cccc(CNCCNC(C)=O)c3)nc12 [Compound 56]
1 to 100 nM | – | CC(=O)NCCNCc1cccc(-c2nc3cc(C)ccc3[nH]2)c1 [Compound 34]
1 to 100 nM | – | CC(=O)NCCNCc1cccc(-c2nc3c(Cl)c(-c4ccccc4)ccc3[nH]2)c1 [Compound 17]
100 to 1000 nM | – | CC(=O)NCCNCc1cccc(C2=NC3C=CC(c4ccccc4)=C(C)C3S2)c1 (centres unmarked) [Compound 53]
